The values below come from ChEMBL document CHEMBL4007466, “Bioactive drimane sesquiterpenoids and aromatic glycosides from Cinnamosma fragrans” (Bioorg Med Chem Lett, 2017).

The test system of the test is MCF7. Put plainly: Antiproliferative activity against human MCF7 cells by SRB assay. It counts as functional, cell-based.

One may read the IC50 as the concentration at which inhibition is half-maximal. Consider `Cc1ccc2c(c1)C(C(C)C)CCC2=O` (centres undefined), for which the IC50 was > 20 µM. With `COc1ccc(O[C@@H]2O[C@H](CO[C@@H]3OC[C@](O)(CO)[C@H]3O)[C@@H](O)[C@H](O)[C@H]2O)cc1OC` the figure was > 20 µM. With `CC(=O)O[C@@H]1C=C([C@H]2O[C@@H]3OC(=O)C4=C[C@@H](OC(C)=O)[C@H]5C(C)(C)CCC[C@]5(C)[C@]43O2)[C@](O)(C=O)[C@@]2(C)CCCC(C)(C)[C@H]12` the figure was 2 µM.

Consider `O=Cc1ccc(O[C@@H]2O[C@H](CO)[C@@H](O)[C@@H](O)[C@H]2O)cc1` [HELICIDE], for which the IC50 is > 20 µM. As for `CC[C@@]1(O)C(=O)OCc2c1cc1n(c2=O)Cc2cc3ccccc3nc2-1` [CAMPTOTHECIN], the figure is 0.03 µM; as for `CC1=C(C=O)[C@@]2(C)CCCC(C)(C)[C@@H]2CC1=O`, > 20 µM; as for `C[C@@H]1O[C@@H](OC[C@H]2O[C@@H](OC(=O)[C@@]3(C)CCC[C@]4(C)C5=C(COC5=O)[C@@H](O)C[C@@H]34)[C@H](O)[C@@H](O)[C@@H]2O)[C@H](O)[C@H](O)[C@H]1O`, > 20 µM. As for `CC1(C)CCC[C@]2(C)[C@@H](C=O)C(C=O)=CC[C@@H]12` [POLYGODIAL], the figure is 12.4 µM; as for `CC(=O)O[C@@H]1C=C2C(=O)O[C@@H]3O[C@H](C4=C[C@@H](OC(C)=O)[C@H]5C(C)(C)CCC[C@]5(C)C4=O)O[C@@]23[C@@]2(C)CCCC(C)(C)[C@H]12`, 3.7 µM. Take `CC(=O)O[C@@H]1C=C([C@H]2O[C@@H]3OC(O)C4=C[C@@H](OC(C)=O)[C@H]5C(C)(C)CCC[C@]5(C)[C@]43O2)[C@](O)(C=O)[C@@]2(C)CCCC(C)(C)[C@H]12` (some centres undefined): the midpoint of inhibition, the IC50, lay at 0.6 µM. In turn, `CC(=O)O[C@@H]1C=C(C=O)[C@@](O)(C=O)[C@@]2(C)CCCC(C)(C)[C@H]12` had a 50% inhibitory concentration (IC50) of 1.6 µM. With `CC1(C)CCC[C@]2(C)[C@H]3COC(=O)C3=CC[C@@H]12` [CINNAMOLIDE] the figure was > 20 µM; with `CC(=O)O[C@@H]1C=C2C(=O)OC[C@]2(O)[C@@]2(C)CCCC(C)(C)[C@H]12` [CINNAMOSMOLIDE], 1.3 µM. With `COc1cc(O[C@@H]2O[C@H](CO[C@@H]3OC[C@](O)(CO)[C@H]3O)[C@@H](O)[C@H](O)[C@H]2O)cc(OC)c1OC`, the 50% inhibitory concentration (IC50) was > 20 µM.
